# Counter-ions that a name gives are not always drawn.
# Assays:
# 5-HT transporter = 5-HT transporter (Homo sapiens, UniProt P31645); experiment: Radioligand binding
# Procedure: (§1) Radioligand binding. Radioligand binding assays were performed at Eurofins CEREP (France). The results are expressed as a percent of control specific binding (measured specific binding*100/control specific binding) and as a percent inhibition of control specific binding (100-(measured specific binding*100)/control specific binding) obtained in the presence of the test compounds. The IC50 values (concentration causing a half-maximal inhibition of control specific binding) and Hill coefficients (nH) were determined by non-linear regression analysis of the competition curves generated with mean replicate values using Hill equation curve fitting (Y = D + [A-D]/[1 + (C/C50)^nH], where Y = specific binding, A = left asymptote of the curve, D = right asymptote of the curve, C = compound concentration, C50 = IC50, and nH = slope factor). This analysis was performed using software developed at Cerep (Hill software) and validated by comparison with data generated by the commercial software SigmaPlot® 4.0 for Windows® (© 1997 by SPSS Inc.). The inhibition constants (Ki) were calculated using the Cheng Prusoff equation (Ki = IC50/[1 + L/KD], where L = concentration of radioligand in the assay, and KD = affinity of the radioligand for the receptor). A scatchard plot is used to determine the Kd.
# 5-HT1A = biological target: T1, 5-HT1A (Homo sapiens, UniProt P08908); experiment: Radioligand binding
# T1 sequence (P08908 1-422): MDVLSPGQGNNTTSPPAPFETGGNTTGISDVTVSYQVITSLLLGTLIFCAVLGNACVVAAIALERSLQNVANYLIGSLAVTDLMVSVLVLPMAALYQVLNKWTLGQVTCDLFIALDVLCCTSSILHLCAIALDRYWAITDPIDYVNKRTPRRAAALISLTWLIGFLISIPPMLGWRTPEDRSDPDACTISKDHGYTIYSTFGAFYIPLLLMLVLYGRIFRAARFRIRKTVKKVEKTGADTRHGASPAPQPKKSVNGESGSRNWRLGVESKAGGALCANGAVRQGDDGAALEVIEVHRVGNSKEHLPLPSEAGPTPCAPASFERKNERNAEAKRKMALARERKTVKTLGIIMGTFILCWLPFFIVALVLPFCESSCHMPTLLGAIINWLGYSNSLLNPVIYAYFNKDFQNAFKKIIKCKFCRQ
# Procedure: as §1
# D3 = D3 (Homo sapiens, UniProt P35462); experiment: Radioligand binding
# Procedure: as §1
# D4.4 = biological target: T2, D4.4 (Homo sapiens, UniProt P21917); experiment: Radioligand binding
# T2 sequence (P21917 1-419): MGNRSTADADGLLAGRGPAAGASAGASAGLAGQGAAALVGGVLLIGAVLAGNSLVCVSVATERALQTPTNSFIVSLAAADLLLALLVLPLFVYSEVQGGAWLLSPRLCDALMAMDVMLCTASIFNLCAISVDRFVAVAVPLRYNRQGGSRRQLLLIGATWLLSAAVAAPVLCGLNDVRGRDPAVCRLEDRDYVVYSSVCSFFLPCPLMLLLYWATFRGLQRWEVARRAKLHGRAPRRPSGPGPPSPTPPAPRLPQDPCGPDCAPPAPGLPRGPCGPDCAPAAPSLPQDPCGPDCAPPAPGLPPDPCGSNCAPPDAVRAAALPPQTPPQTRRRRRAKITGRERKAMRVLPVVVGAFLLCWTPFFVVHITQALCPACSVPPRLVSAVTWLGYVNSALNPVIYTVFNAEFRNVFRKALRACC
# Procedure: as §1
# M4 = biological target: T3, M4 (Homo sapiens, UniProt P08173); experiment: Radioligand binding
# T3 sequence (P08173 1-479): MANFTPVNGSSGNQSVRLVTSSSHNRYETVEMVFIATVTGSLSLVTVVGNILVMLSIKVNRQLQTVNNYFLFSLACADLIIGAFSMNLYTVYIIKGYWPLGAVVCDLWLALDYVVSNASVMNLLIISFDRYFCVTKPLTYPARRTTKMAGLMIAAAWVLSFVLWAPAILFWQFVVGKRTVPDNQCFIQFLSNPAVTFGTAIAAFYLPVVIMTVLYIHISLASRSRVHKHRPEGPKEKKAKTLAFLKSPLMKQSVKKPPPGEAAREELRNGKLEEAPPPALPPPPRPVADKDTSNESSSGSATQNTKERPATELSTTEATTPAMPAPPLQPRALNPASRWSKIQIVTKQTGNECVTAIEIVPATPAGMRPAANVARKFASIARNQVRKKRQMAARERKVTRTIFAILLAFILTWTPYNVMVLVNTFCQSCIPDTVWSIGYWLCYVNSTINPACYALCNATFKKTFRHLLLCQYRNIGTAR
# Procedure: as §1
# rats = experiment: Maximal electroshock seizure (MES) test; type: in vivo
# mice = experiment: Subcutaneous pentylenetetrazole seizure test (ScPTZ, SCMET); type: in vivo; settings: ip, […]
# Procedure: The assays were carried out within the Epilepsy Therapy Screening Program (ETSP, previously known as the Anticonvulsant Screening Program, ASP), Epilepsy Branch, National Institute of Neurological and Communicative Disorders and Stroke, National Institutes of Health in Rockville, MD, USA [23].
# [1] = tested on: organotypic hippocampal slice cultures; experiment: Neuroprotection primary screen, excitotoxin kainic acid; type: cell-based; settings: kainic acid 20 µM, 10 and 100 µM compound
# Procedure: Compound 2 : ADD t{umber, b890s0 Batch: lB- Date Compteted. Ect\,t""201 0 […]
# Excilotoxin: llGinic ncia Insult Duration: l+ Hours Solvent: […]
# Ai lxn zopr.,r aZ lxa zopr,r Ae lre zoprta
# Bz lr<n zopn er ]ra zopr',t l:+aot a r ooprt/|*aa9o8o l oopM lgaeota t oot,tr,t*gB9o8o t oopM […]
# The "Primary screen Experiment" is a qualitative assessment of the ability of a compound to prevent excitotoxic cell dearh. organotypic hippocampal slice clltures are treated with N-methyl-D-aipartate lNuoa; o; kainic acid (KA) to induce neuronal cell death. Propidium iodide (Pl), a membrane-impermeant compound, is included in all welts of the culture plate.
# Dying cells have compromised cell membranes, thus Pl may diffuse into the cell, intercalate with DNA and ftuoresce. Thus, the intensity of the Pl fluorescence is proportional to the amount of cell death in the individual slices. Hippocampal slice cultures are treated with the excitotoxin alone, or where indicated above, with the excitotoxin and either one eltu/o investigational compounds at the concentrations indicated. lf neuroprotection occurs as a consequence of the added […]
# been treated with the excitotoxin alone.
# (1 picture or pasted object on this page, not shown here)
# [2] = 0.003 μM, read-out: % of control specific binding
# [3] = 0.03 μM, read-out: % of control specific binding
# [4] = 0.3 μM, read-out: % of control specific binding
# [5] = 3 μM, read-out: % of control specific binding
# [6] = 30 μM, read-out: % of control specific binding
# [7] = 0.01 μM, read-out: % of control specific binding
# [8] = 0.1 μM, read-out: % of control specific binding
# [9] = 1 μM, read-out: % of control specific binding
# [10] = 10 μM, read-out: % of control specific binding
# [11] = 100 μM, read-out: % of control specific binding
# 5-HT transporter, sequence (P31645 whole entry): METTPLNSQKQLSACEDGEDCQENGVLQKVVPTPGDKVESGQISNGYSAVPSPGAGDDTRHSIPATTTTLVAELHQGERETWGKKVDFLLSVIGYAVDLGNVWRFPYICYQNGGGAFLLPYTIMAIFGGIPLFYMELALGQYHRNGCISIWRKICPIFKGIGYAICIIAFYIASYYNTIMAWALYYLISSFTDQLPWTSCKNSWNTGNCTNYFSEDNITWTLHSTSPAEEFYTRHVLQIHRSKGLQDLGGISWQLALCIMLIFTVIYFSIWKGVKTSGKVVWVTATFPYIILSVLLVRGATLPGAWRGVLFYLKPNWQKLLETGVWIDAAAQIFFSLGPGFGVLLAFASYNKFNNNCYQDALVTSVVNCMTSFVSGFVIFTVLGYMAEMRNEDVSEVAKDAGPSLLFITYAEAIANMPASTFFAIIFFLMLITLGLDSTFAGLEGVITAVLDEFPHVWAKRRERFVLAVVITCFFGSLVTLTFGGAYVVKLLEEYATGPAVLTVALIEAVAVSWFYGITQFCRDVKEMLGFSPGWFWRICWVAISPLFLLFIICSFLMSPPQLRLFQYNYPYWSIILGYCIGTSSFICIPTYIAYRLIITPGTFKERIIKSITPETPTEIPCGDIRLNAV
# D3, sequence (P35462 whole entry): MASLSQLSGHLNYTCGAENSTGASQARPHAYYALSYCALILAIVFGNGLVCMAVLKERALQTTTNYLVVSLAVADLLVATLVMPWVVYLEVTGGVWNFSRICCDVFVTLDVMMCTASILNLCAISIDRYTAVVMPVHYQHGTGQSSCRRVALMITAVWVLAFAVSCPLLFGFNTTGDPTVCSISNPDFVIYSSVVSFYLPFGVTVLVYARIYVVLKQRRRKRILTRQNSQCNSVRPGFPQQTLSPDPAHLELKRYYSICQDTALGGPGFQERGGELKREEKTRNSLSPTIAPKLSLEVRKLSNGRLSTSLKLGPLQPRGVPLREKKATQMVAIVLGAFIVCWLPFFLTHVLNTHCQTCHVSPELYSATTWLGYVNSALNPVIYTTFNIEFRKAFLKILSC
compound,measurement,setting,value
"CCC(CO)NCCOc1c(C)cccc1Cl (stereo not shown) [Compound 4, R,S-2-((2-(2-chloro-6-methylphenoxy)ethyl)amino)butan-1-ol]",% of control specific binding,5-HT transporter; 100 μM,5.1%
same,% of control specific binding,5-HT1A; 100 μM,2.1%
same,% of control specific binding,D3; 100 μM,11.9%
same,% of control specific binding,D4.4; 100 μM,26.6%
same,% of control specific binding,M4; 100 μM,30.5%
same,MES TPE,rats; ip,0.25 h
same,MES ED50,"rats; ip, […]",7.3 (5.39–9.89) mg/kg
same,MES ED50,rats; po,> 60 mg/kg
same,MES PI,rats; po,> 3.55
same,MES ED50,"rats; po, […]",67.69 (43.01–93.82) mg/kg
same,SCMET ED50,mice; mice,> 64 mg/kg
same,Test Result (neuroprotection),[1],No Neuroprotection
"CCC(CO)NCCOc1c(C)cccc1Cl (stereo not shown) [KM-408, R,S-2-((2-(2-chloro-6-methylphenoxy)ethyl)amino)butan-1-ol hydrochloride]",IC50,5-HT transporter,3.6 µM
same,Ki,5-HT transporter,1.7 µM
same,remaining activity at 0.003 µM,5-HT transporter; [2],105%
same,remaining activity at 0.03 µM,5-HT transporter; [3],112%
same,remaining activity at 0.3 µM,5-HT transporter; [4],92.8%
same,remaining activity at 3 µM,5-HT transporter; [5],61%
same,remaining activity at 30 µM,5-HT transporter; [6],11.5%
same,IC50,5-HT1A,1.3 µM
same,Ki,5-HT1A,0.8 µM
same,remaining activity at 0.001 µM,"5-HT1A; 0.001 μM, read-out: % of control specific binding",100%
same,remaining activity at 0.01 µM,5-HT1A; [7],95.9%
same,remaining activity at 0.1 µM,5-HT1A; [8],88.6%
same,remaining activity at 1 µM,5-HT1A; [9],55.6%
same,remaining activity at 10 µM,5-HT1A; [10],12.5%
same,IC50,D3,22 µM
same,Ki,D3,4.9 µM
same,remaining activity at 0.003 µM,D3; [2],104%
same,remaining activity at 0.03 µM,D3; [3],103%
same,remaining activity at 0.3 µM,D3; [4],102%
same,remaining activity at 3 µM,D3; [5],95.3%
same,remaining activity at 30 µM,D3; [6],42.5%
same,IC50,D4.4,66 µM
same,Ki,D4.4,25 µM
same,remaining activity at 0.01 µM,D4.4; [7],100%
same,remaining activity at 0.1 µM,D4.4; [8],101%
same,remaining activity at 1 µM,D4.4; [9],97.6%
same,remaining activity at 10 µM,D4.4; [10],87.9%
same,remaining activity at 100 µM,D4.4; [11],39.4%
same,IC50,M4,24 µM
same,Ki,M4,15 µM
same,remaining activity at 0.1 µM,M4; [8],98%
same,remaining activity at 1 µM,M4; [9],92%
same,remaining activity at 3 µM,M4; [5],82.7%
same,remaining activity at 10 µM,M4; [10],67%
same,remaining activity at 100 µM,M4; [11],23.8%
same,ED50,"rats; Rattus norvegicus, ip, 0.25 h",5.69 mg/kg
same,MES PI,rats; ip,9.55
same,MES TPE,rats; ip,0.25 h
same,ED50,"mice; Mus musculus, read-out: SCMET ED50",> 100 mg/kg
same,Test Result (neuroprotection),[1]; listed as 367061,No neurop rotection observed

# — publication PMC9889419 (Pharmacological Reports, 2022)
